Measurements as given in PMC6149971, “In Vivo and In Vitro Activities and ADME-Tox Profile of a Quinolizidine-Modified 4-Aminoquinoline: A Potent Anti-P. falciparum and Anti-P. vivax Blood-Stage Antimalarial” (Molecules : A Journal of Synthetic Chemistry and Natural …, 2017).
Where “and” joins values, the source holds several entries; their conditions need not be identical. Equal values may be shown once. Read-outs that look alike come from different tables or passages of the source.

Assays:
[1] = Microsome stability and metabolism studies, mouse; type: in vitro ADME; design: key: +: Metabolic Products Detected In Vitro and In Vivo; ND: Not detectable; settings: (−)-AM1 1 μM, at 30 min
Description: (§1) Samples from the metabolic stability and metabolism studies were analyzed under the following conditions: UPLC interfaced with a Premiere XE triple Quadrupole Waters for stability studies, and Bruker Daltonics Ion Trap HCT Ultra for metabolic studies. A gradient from 2% to 100% (Water, MeOH, 5 mM Ammonium Acetate) over 2 min (stability) or 12 min (metabolism) in a C18 BEH (dimensions 1 by 50 mm for stability and 2.1 by 100 mm for metabolism, 1.7 µm column, 45 °C temperature, flow rate 0.5 mL/min) was used. For stability studies, the detection was performed in MRM (ESI positive, Q1/Q3 330.16/152.00, Cone Voltage 45 V; Extractor 5 V; Capillary 3.4 kV), while for metabolism studies, analysis was performed in Auto MS/MS mode (ESI positive; Capillary 109 V; Dry Temp 350 °C; Nebulizer 30 psi; Dry gas 10 L/min; HV capillary 500 V; Mass Accu time 500 µs; Mass range MS scan 100–600 amu, MS/MS 50–450 amu).
(§2) For stability and metabolism studies, test compounds were dissolved in DMSO, diluted at the final concentration of 1 µM, and pre-incubated in duplicate for 10 min at 37 °C in potassium phosphate buffer, pH 7.4, 3 mM MgCl2, with rat, mouse, and human hepatic microsomes (Xenotech Europe, Pfungstadt, Germany) at the final concentration of 0.5 mg/mL. The reaction was then started by adding the cofactor mixture of NADP, Glc6P, and G6P-DH, in the presence of UDPGA 1 mM in human microsomes to promote glucuronide formation. Acetonitrile (with verapamil as internal standard) was added to the samples at the times time 0 and 30 min to stop the reaction. Samples were then centrifuged and the supernatants analysed and quantified by LC-MS/MS. Reference compounds of known metabolic stability, 7-ethoxycoumarin (7-EC) and propranolol, were used as controls.
(§3) The percentage of the area of test compounds remaining after 30 min incubation was calculated in respect to the area of compounds at time = 0 min. […] Samples were re-analyzed by acquiring the daughter scan of the potential metabolites found during the full scan acquisition.

[2] = Microsome stability and metabolism studies, rat; type: in vitro ADME; design: key: +: Metabolic Products Detected In Vitro and In Vivo; ND: Not detectable; settings: (−)-AM1 1 μM, at 30 min
Description: as §1, §2, §3

[3] = Microsome stability and metabolism studies, human; type: in vitro ADME; design: key: +: Metabolic Products Detected In Vitro and In Vivo; ND: Not detectable; settings: (−)-AM1 1 μM, at 30 min
Description: (§4) Samples from the metabolic stability and metabolism studies were analyzed under the following conditions: UPLC interfaced with a Premiere XE triple Quadrupole Waters for stability studies, and Bruker Daltonics Ion Trap HCT Ultra for metabolic studies. A gradient from 2% to 100% (Water, MeOH, 5 mM Ammonium Acetate) over 2 min (stability) or 12 min (metabolism) in a C18 BEH (dimensions 1 by 50 mm for stability and 2.1 by 100 mm for metabolism, 1.7 µm column, 45 °C temperature, flow rate 0.5 mL/min) was used. […]
For stability and metabolism studies, test compounds were dissolved in DMSO, diluted at the final concentration of 1 µM, and pre-incubated in duplicate for 10 min at 37 °C in potassium phosphate buffer, pH 7.4, 3 mM MgCl2, with rat, mouse, and human hepatic microsomes (Xenotech Europe, Pfungstadt, Germany) at the final concentration of 0.5 mg/mL. […] Samples were then centrifuged and the supernatants analysed and quantified by LC-MS/MS. […]
as §3

[4] = Metabolites in mouse plasma after oral treatment; type: in vivo; design: key: +: Metabolic Products Detected In Vitro and In Vivo; ND: Not detectable; settings: after 50 mg/kg (−)-AM1 oral gavage, at 120 min
Description: A representative chromatogram in the mouse and the MS spectra are shown in Figure S1 (Supplementary Materials), while the proposed structures of metabolites in all the species, together with the retention times, are shown in Table 3. In the same table, the metabolites found in mouse plasma after 50 mg/kg oral treatment are included. The retention times and [M + H]^+ of the metabolites are the same for all three species.
The parent [M + H]^+ = 330 and the metabolites [M + H]^+ = 346 and [M + H]^+ = 344 were also detected in the mouse plasma samples collected after oral treatment of CD1 mice with 50 mg/kg of (−)-AM1 (Figure S4).
as §4

P. vivax field isolates = assay: In vitro assay against P. vivax field isolates; type: cell-based; settings: for IC50: read-out: P. vivax IC50, field isolates
From the text: Ten P. vivax isolates were collected from June to July 2010 from malaria patients attending the Shoklo Malaria Research Unit (SMRU) clinics, Mae Sot region of the Tak Province in north-western Thailand under the ethical guidelines in the approved protocol OXTREC 027-05 (Centre for Clinical Vaccinology and Tropical Medicine, University of Oxford, Oxford, UK). These samples were collected from patients with no prior antimalarial therapy and with microscopically confirmed P. vivax. After written consent, blood samples were collected by venepuncture in 5 mL volume lithium heparinized tubes, which were then transported to the laboratory at SMRU within 5 h of collection. The ten isolates were chosen for testing because the majority (>80%) of the parasites were at the mid trophozoite stage (around 20 h post invasion) and no schizonts were detected.

[5] = test system: chloroquine-sensitive and resistant P. falciparum strains; assay: In vitro antimalarial activity, range over the strain panel; type: cell-based; settings: D10, W-2, FCR1, FCR3, TM91C235; range over strains and forms; read-out: IC50 range against CQ-S and CQ-R P. falciparum strains
[6] = design: method as in PMID 19651905; settings: pH 7.4; cited from earlier work
P. berghei ANKA = assay: Standard four-day suppressive test, P. berghei; type: in vivo; settings: CD1 mice, oral, once a day for four days, parasitaemia on day 4
Description: Groups of five CD1 mice were inoculated i.v. with 4 × 10^6 infected erythrocytes/mice. The compound, dissolved in standard suspending formula (SSV) (0.5% sodium carboxymethylcellulose, 0.5% benzyl alcohol, 0.4% Tween 80, 0.9% NaCl), was administered orally, once a day for a period of four days, starting two hours post-infection. […] Parasitaemia was determined by microscopic examination of Giemsa-stained blood films taken on day four, processed using MICROSOFT® EXCEL spreadsheets (Microsoft Corp., Redmond, WA, USA), and expressed as percentages of inhibition from the arithmetic mean parasitaemias of each group in relation to the untreated group. ED50 and ED90 values were calculated by GraphPad Prism 6 (GraphPad Software Inc, La Jolla, CA, USA).

[7] = Pharmacokinetics in CD-1 mice after oral administration; type: in vivo, mouse
Description: Samples from the pharmacokinetic studies were analyzed under the following conditions: UPLC interfaced with a Premiere XE triple Quadrupole, Waters. A gradient from 2 to 100% (Water, MeOH, 5 mM Ammonium Acetate) over 1.3 min was used in Acquity HSS T3 (dimensions 2.1 by 50 mm, 1.8 µm column, 40 °C temperature, flow rate 0.5 mL/min). Detection was performed in MRM (ESI positive, Q1/Q3 330.16/152.00, Cone Voltage 45 V; Extractor 5 V; Capillary 3.4 kV). The limit of detection was 1 ng/mL. Pharmacokinetic parameters were determined by Non-Compartmental Analysis, using the linear trapezoidal rule and uniform weight.
Pharmacokinetic data were collected in mice by testing the racemate and the enantiomers at the same single dose, and vehicle-utilized for in vivo studies (see composition in paragraph 4.4). Briefly, male CD-1 mice (Charles River Laboratories) weighing 18–22 g received single dose (10 mg/kg) oral administrations of the AM1 racemate and single enantiomers, each dissolved in SSV. For each experiment, twenty-four mice/dose and three mice/time-point were used. Blood samples were collected at eight selected time-points (15, 30 and 60 min; 2, 4, 6, 8 and 24 h) under ethyl ether anaesthesia. The heparinized tubes containing blood samples were immediately placed on ice and centrifuged, and the supernatant collected and frozen at −80 °C prior to analysis. Pharmacokinetic plasma samples (spiked with internal standard) were filtered (Sirocco filter plate, Waters) under vacuum, and 5 µL analysed by LC-MS/MS.

P. falciparum D10 (CQ-S) = test system: P. falciparum D10 (CQ-S); design: method as in PMID 22901673; settings: 72 h incubation, pLDH method, mean of 3 experiments; data already published; cited from earlier work
P. falciparum W-2 (CQ-R) = test system: P. falciparum W-2 (CQ-R); design: method as in PMID 22901673; settings: 72 h incubation, pLDH method, mean of 3 experiments; data already published; cited from earlier work
CYP1A2 = target: T1, CYP1A2 (Homo sapiens, UniProt P05177); assay: in vitro
T1 sequence (P05177 1-516): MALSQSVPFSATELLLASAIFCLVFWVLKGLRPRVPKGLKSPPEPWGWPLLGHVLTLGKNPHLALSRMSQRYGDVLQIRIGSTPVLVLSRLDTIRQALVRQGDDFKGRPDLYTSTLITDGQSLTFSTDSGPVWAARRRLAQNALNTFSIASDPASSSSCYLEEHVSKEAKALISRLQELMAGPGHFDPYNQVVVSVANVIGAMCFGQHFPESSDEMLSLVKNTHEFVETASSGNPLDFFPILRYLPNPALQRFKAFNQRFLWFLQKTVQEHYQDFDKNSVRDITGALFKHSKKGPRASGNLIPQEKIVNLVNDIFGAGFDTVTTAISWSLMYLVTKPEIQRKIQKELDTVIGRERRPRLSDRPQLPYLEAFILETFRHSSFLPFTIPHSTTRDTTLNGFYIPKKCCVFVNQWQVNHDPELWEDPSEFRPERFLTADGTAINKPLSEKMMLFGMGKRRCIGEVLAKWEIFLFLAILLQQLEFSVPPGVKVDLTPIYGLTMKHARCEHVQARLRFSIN

CYP2C9 = CYP2C9 (Homo sapiens, UniProt P11712); assay: in vitro
CYP2C19 = CYP2C19 (Homo sapiens, UniProt P33261); assay: in vitro
CYP2D6 = CYP2D6 (Homo sapiens, UniProt P10635); assay: in vitro
CYP3A4 = CYP3A4 (Homo sapiens, UniProt P08684); assay: in vitro
hERG = target: T2, hERG (Homo sapiens, UniProt Q12809); assay: hERG [3H]-astemizole radioligand binding assay; settings: HEK293 cell membranes, preliminary experiments
T2 construct: expressed in transfected cells
Description: [^3H]-astemizole (PerkinElmer ITALIA Spa, Milan, Italy) radioligand binding assays were performed in HEK293 cells membranes stably transfected with the hERG (U04270); non-specific binding was evaluated in the presence of an excess of 10 µM cold astemizole. Experiments were performed at 22 °C for 60 min in triplicate and compounds tested in a range from 0.03 µM to 30 µM. Two separate experiments were performed and data analyzed with non-linear fitting using a four-parameter logistic.

[8] = test system: P. falciparum TM91C235 (multidrug-resistant); assay: In vitro chemosensitivity assay (pLDH), TM91C235 strain; type: cell-based; settings: Plasmodium falciparum, 72 h, read-out: P. falciparum IC50, TM91C235
[9] = test system: P. falciparum FCR1 (CQ-R); assay: In vitro chemosensitivity assay (pLDH), FCR1 strain; type: cell-based; settings: Plasmodium falciparum, 72 h, read-out: P. falciparum IC50, FCR1
[10] = test system: P. falciparum FCR3 (CQ-R); assay: In vitro chemosensitivity assay (pLDH), FCR3 strain; type: cell-based; settings: Plasmodium falciparum, FCR3, 72 h, read-out: P. falciparum IC50, FCR3
[11] = Maximum tolerated dose in CD1 mice; settings: CD1, mouse, in vivo, ip
[12] = 10 field isolates from the Thai–Burmese border, mean
[13] = male, CD-1, mouse, in vivo, po, 10 mg/kg
[14] = CD-1 mice, 10 mg/kg oral, single dose in SSV, plasma

Chain of CYP2D6 (P10635 whole entry): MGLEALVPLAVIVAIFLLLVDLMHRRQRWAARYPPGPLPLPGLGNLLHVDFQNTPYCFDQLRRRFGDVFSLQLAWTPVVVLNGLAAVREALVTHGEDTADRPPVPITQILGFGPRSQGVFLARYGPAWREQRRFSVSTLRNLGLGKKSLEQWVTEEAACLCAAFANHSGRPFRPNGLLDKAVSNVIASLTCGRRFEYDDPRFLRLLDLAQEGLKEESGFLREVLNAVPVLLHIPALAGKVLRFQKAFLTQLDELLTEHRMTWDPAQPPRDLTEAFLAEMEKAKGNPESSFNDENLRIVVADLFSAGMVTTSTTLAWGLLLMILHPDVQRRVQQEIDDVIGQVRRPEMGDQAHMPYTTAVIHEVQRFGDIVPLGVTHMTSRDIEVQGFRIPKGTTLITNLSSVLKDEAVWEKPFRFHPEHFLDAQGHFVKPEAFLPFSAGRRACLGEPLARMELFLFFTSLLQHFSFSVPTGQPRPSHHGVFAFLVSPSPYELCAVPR
Chain of CYP2C9 (P11712 whole entry): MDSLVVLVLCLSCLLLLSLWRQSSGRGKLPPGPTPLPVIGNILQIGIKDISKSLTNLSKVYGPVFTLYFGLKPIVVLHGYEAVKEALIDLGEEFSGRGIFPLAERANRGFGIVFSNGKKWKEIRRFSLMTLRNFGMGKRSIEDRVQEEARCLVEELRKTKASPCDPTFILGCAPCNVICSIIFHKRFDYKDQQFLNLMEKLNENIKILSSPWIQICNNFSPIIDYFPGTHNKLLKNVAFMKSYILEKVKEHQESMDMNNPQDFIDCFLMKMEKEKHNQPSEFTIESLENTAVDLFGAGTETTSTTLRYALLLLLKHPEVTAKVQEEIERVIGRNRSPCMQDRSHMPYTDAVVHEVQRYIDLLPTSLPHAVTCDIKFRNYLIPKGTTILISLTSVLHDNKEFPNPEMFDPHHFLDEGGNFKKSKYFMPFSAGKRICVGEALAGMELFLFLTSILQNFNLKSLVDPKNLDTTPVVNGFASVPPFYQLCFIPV
T2 sequence (Q12809 whole entry): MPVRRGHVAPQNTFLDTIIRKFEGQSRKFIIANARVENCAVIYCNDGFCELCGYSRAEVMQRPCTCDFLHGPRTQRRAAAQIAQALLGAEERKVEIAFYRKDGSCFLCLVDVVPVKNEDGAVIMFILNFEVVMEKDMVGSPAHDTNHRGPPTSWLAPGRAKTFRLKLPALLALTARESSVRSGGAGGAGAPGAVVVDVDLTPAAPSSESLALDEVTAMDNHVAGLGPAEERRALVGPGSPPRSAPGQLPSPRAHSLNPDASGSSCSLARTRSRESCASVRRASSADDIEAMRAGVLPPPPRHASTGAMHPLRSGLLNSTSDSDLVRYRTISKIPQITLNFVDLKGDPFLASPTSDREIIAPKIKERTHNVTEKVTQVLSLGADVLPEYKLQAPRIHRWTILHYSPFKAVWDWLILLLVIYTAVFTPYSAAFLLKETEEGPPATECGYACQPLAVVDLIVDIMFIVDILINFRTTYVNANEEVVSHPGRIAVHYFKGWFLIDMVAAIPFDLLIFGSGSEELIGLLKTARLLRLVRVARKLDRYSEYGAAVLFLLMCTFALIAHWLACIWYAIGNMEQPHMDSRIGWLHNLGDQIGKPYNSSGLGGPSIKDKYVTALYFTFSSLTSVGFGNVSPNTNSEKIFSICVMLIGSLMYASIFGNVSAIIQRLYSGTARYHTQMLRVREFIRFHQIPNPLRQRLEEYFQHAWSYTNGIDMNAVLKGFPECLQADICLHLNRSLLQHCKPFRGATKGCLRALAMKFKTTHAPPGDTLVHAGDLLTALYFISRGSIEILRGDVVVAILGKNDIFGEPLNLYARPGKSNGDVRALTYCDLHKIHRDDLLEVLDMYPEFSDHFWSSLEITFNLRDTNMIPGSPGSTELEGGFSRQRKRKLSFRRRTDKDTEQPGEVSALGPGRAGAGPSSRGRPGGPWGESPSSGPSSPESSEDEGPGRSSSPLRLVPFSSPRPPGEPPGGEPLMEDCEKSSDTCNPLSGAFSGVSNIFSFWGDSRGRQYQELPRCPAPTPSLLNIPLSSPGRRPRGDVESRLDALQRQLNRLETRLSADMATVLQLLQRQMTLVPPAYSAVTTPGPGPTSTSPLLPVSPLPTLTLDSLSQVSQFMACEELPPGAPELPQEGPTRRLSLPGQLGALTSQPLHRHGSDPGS
Chain of CYP2C19 (P33261 whole entry): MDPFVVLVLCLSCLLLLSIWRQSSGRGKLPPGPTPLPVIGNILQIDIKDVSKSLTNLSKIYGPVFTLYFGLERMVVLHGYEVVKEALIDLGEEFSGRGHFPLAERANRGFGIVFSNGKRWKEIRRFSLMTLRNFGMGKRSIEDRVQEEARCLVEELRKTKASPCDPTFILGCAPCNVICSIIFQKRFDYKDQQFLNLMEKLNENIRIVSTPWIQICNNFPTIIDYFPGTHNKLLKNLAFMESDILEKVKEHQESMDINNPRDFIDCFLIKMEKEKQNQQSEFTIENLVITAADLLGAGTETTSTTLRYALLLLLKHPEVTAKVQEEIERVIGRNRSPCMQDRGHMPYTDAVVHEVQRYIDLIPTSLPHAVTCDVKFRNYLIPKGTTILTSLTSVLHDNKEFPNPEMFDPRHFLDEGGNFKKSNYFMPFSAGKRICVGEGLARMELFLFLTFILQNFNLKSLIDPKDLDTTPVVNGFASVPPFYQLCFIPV
Chain of CYP3A4 (P08684 whole entry): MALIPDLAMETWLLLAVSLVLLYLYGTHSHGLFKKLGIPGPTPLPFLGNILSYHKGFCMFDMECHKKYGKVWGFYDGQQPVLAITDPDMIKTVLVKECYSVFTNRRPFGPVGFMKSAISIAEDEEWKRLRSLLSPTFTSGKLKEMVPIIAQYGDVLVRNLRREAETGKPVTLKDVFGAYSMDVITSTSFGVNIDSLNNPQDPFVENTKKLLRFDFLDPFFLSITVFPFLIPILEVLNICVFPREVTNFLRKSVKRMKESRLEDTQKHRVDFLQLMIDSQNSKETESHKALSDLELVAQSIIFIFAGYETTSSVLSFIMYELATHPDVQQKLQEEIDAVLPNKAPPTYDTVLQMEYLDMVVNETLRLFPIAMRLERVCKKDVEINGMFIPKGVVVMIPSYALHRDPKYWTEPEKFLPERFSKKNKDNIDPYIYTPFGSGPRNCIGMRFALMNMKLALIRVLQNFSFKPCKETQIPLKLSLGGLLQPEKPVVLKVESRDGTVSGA

## [O-][NH+](CC1CCCN2CCCCC12)c1ccnc2cc(Cl)ccc12 (stereo not shown) [C00003]
[1]
  Metabolic products detected, in vitro microsomes, mouse: +
[2]
  Metabolic products detected, in vitro microsomes, rat: +
[3]
  Metabolic products detected, in vitro microsomes, human: +
[4]
  Metabolic products detected, in vivo plasma levels, mouse: +

## O=C(Nc1ccnc2cc(Cl)ccc12)[C@@H]1CCCN2CCCC[C@H]12 [C00002]
[1]
  Metabolic products detected, in vitro microsomes, mouse: +
[2]
  Metabolic products detected, in vitro microsomes, rat: +
[3]
  Metabolic products detected, in vitro microsomes, human: +

## Clc1ccc2c(NCC3CCCN4CCCCC34)ccnc2c1 (stereo not shown) [AM1, 7-chloro-4-(N-lupinyl)aminoquinoline]
P. vivax field isolates; [12]
  IC50: 29 nM
[5]
  IC50: 16 to 53 nM
[6]
  LogD7.4: 2.26

## Clc1ccc2c(NC[C@H]3CCCN4CCCC[C@@H]34)ccnc2c1 [(+)-AM1, 7-chloro-N-(((1R,9aS)-octahydro-1H-quinolizin-1-yl)methyl)quinolin-4-amine]
P. berghei ANKA
  P. berghei ED90 (95% CI): 2.03 (1.46–2.60) mg/kg
P. berghei ANKA; Plasmodium berghei, 96 h, read-out: P. berghei ED50 (95% CI)
  ED50: 1.6 mg/kg
[7]; [13]
  AUC(0-t): 0.382 µM·h and 126 ng·h/mL
  Cmax: 108 nM and 35.5 ng/mL
  MRT last: 2.7 h
  Tmax: 2 h
P. falciparum D10 (CQ-S)
  IC50: 17.5 nM
P. falciparum W-2 (CQ-R)
  IC50: 35.8 nM
CYP1A2
  inhibition at 3 µM: 8.3 ± 0.8%
CYP2C9
  inhibition at 3 µM: 11.1 ± 0.5%
CYP2C19
  inhibition at 3 µM: 9 ± 1.1%
CYP2D6
  inhibition at 3 µM: 62.2 ± 1%
CYP3A4
  inhibition at 3 µM: 14.3 ± 1.9%

## Clc1ccc2c(NCC3CCCN4CCCCC34)ccnc2c1 (racemic) [(±)-AM1, 7-chloro-4-(N-lupinyl)aminoquinoline]
P. vivax field isolates; [12]
  IC50: 29.7 nM
P. vivax field isolates; 10 field isolates, times higher than CQ
  potency against P. vivax field isolates relative to CQ: about 3 times
P. berghei ANKA
  P. berghei ED50 (95% CI): 2.77 (1.26–4.29) mg/kg
  P. berghei ED90 (95% CI): 12.58 (7.69–17.46) mg/kg
hERG
  Ki: 500 to 800 nM
[7]; [14]
  MRT last: 3.27 h
  Tmax: 0.5 h
[7]; CD-1 mice, 10 mg/kg oral, single dose in SSV, plasma, 10 mg/kg
  AUC last: 19.5 min·µM and 6421 min·ng/mL
P. falciparum D10 (CQ-S)
  IC50: 16.1 nM
P. falciparum W-2 (CQ-R)
  IC50: 35.4 nM

## CCN(CC)CCCC(C)Nc1ccnc2cc(Cl)ccc12 (stereo not shown) [CQ, chloroquine, reference compound]
[8]
  IC50: 199 nM
[9]
  IC50: 182 nM
[10]
  IC50: 113 nM
P. vivax field isolates; Plasmodium vivax
  IC50: 86.7 nM
P. falciparum D10 (CQ-S)
  IC50: 23.7 nM
P. falciparum W-2 (CQ-R)
  IC50: 438 nM
[11]
  MTD: 50 mg/kg
